Test results published in patent publication US9017689B2, “Peptides for vaccine against birch allergy” (Circassia Limited, priority 2010, dated 2015).
Like-named read-outs stand apart in the source and are kept apart here. Ends that are not written are not given here.

Assay: Solubility screening in trehalose matrices pH 2.65 to 7.03;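 also: test items are peptides, each checked for solubility in every trehalose matrix, the matrices made up in distilled deionised water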
Format: physicochemical
Conditions: for solubility: read-out: Solubility [mg per ml]
[1] = 2 mM HCl and 260 mM trehalose dihydrate, pH 2.65
[2] = 10 mM potassium dihydrogen phosphate and 260 mM trehalose dihydrate, pH 6.03
[3] = 10 mM potassium dihydrogen phosphate and 260 mM trehalose dihydrate, pH 7.03
[4] = 10 mM sodium citrate and 260 mM trehalose dihydrate, pH 3.01
[5] = 10 mM sodium citrate and 260 mM trehalose dihydrate, pH 3.99
[6] = 10 mM sodium citrate and 260 mM trehalose dihydrate, pH 5.02
[7] = aqueous buffer, 10 mM potassium dihydrogen phosphate and 260 mM trehalose dihydrate, pH 6.03
[8] = aqueous buffer, 10 mM potassium dihydrogen phosphate and 260 mM trehalose dihydrate, pH 7.03
[9] = aqueous buffer, 10 mM sodium citrate and 260 mM trehalose dihydrate, pH 3.01
[10] = aqueous buffer, 10 mM sodium citrate and 260 mM trehalose dihydrate, pH 3.99
[11] = aqueous buffer, 10 mM sodium citrate and 260 mM trehalose dihydrate, pH 5.02
[12] = water, 2 mM HCl and 260 mM trehalose dihydrate, pH 2.65
[13] = 10 mM sodium citrate and 260 mM trehalose dihydrate, pH 6.01
[14] = aqueous buffer, 10 mM sodium citrate and 260 mM trehalose dihydrate, pH 6.01

Description: The solubility of each of the nine peptides was evaluated in each of the matrices in accordance with Appendix 1.
Each matrix was prepared at a concentration of 10 mM of the buffering agent.
The procedure indicated is for the preparation of 100 mL of each buffer, but alternative volumes can be prepared by adjusting the quantities. • 0.1M stock solutions of sodium citrate and potassium dihydrogen phosphate were prepared. • Weight of trehalose dihydrate equivalent to 260 mM was transferred to an appropriate mixing vessel containing 70-80 mL of distilled deionised water and allowed to dissolve. • 10 mL of the appropriate stock 0.1M buffer solution was added to the mixing vessel and stirred. • The pH of the matrix was adjusted to the desired value by adding 2 mM hydrochloric acid or 0.1M sodium hydroxide as required. • The solutions were finally diluted to 100 g weight and the pH re-assessed.

Sequence | Comments (solubility on preparation) [1] | Solubility [mg per ml 'as is'] [1] | Solubility [μmol per ml] [1] | Solubility after 24 Hours [1] | Commute (solubility on preparation) [2] | Solubility [mg per ml 'as is'] [2] | Solubility [μmol per ml] [2] | Solubility after 24 Hours [2] | Comments (solubility on preparation) [3] | Solubility [mg per ml 'as is'] [3] | Solubility [μmol per ml] [3] | Solubility after 24 Hours [3] | Comments (solubility on preparation) [4] | Solubility [mg per ml 'as is'] [4] | Solubility [μmol per ml] [4] | Solubility after 24 Hours [4] | Solubility [mg per ml 'as is'] [5] | Solubility [μmol per ml] [5] | Comments (solubility on preparation) [6] | Solubility [mg per ml 'as is'] [6] | further results
KEMGETLLRAVESYLLAHS [Bir09B] | Completely dissolved | 12.20 mg per ml ‘as is’ | 4.942 μmol per ml | Completely dissolved | Completely dissolved in | 0.36 mg per ml ‘as is’ | 0.147 μmol per ml | Precipitated out, | Completely dissolved | 21.70 mg per ml ‘as is’ | 8.790 μmol per ml | Completely dissolved | Completely dissolved | 11.62 mg per ml ‘as is’ | 4.707 μmol per ml | Completely dissolved | 11.40 mg per ml ‘as is’ | 4.618 μmol per ml | Completely dissolved | 12.75 mg per ml ‘as is’ | Comments (solubility on preparation) [5]: Completely dissolved; Solubility after 24 Hours [5]: Completely dissolved; Solubility [μmol per ml] [6]: 5.165 μmol per ml; Solubility after 24 Hours [6]: Completely dissolved; solubility [7]: ≥ 315 µg/mL; solubility [8]: ≥ 18900 µg/mL; solubility [9]: ≥ 10100 µg/mL; solubility [10]: ≥ 9920 µg/mL; solubility [11]: ≥ 11100 µg/mL; solubility [12]: ≥ 10600 µg/mL
FNYETETTSVIPAARK [BIR1I] | Completely dissolved | 19.50 mg per ml ‘as is’ | 9.222 μmol per ml | Completely dissolved | Completely dissolved | 22.14 mg per ml ‘as is’ | 10.470 μmol per ml | Completely dissolved | Completely dissolved | 20.78 mg per ml ‘as is’ | 9.827 μmol per ml | Completely dissolved | Completely dissolved | 1.65 mg per ml ‘as is’ | 0.779 μmol per ml | Completely dissolved | 2.28 mg per ml ‘as is’ | 1.078 μmol per ml | Completely dissolved | 2.30 mg per ml ‘as is’ | Comments (solubility on preparation) [5]: Completely dissolved; Solubility after 24 Hours [5]: Completely dissolved; Solubility [μmol per ml] [6]: 1.089 μmol per ml; Solubility after 24 Hours [6]: Completely dissolved; Comments (solubility on preparation) [13]: Completely dissolved; Solubility [mg per ml 'as is'] [13]: 7.45 mg per ml ‘as is’; Solubility [μmol per ml] [13]: 3.522 μmol per ml; Solubility after 24 Hours [13]: Completely dissolved; solubility [7]: ≥ 19100 µg/mL; solubility [8]: ≥ 18000 µg/mL; solubility [9]: ≥ 1420 µg/mL; solubility [10]: ≥ 1970 µg/mL; solubility [11]: ≥ 1990 µg/mL; solubility [14]: ≥ 6430 µg/mL; solubility [12]: ≥ 16800 µg/mL
SNEIKIVATPEGGSILK [Bir07C] | Completely dissolved | 11.48 mg per ml ‘as is’ | 5.747 μmol per ml | Completely dissolved | Completely dissolved in | 0.42 mg per ml ‘as is’ | 0.208 μmol per ml | Precipitated out, | Completely dissolved | 6.70 mg per ml ‘as is’ | 3.354 μmol per ml | Completely dissolved | Completely dissolved | 1.30 mg per ml ‘as is’ | 0.653 μmol per ml | Completely dissolved | 0.38 mg per ml ‘as is’ | 0.188 μmol per ml | Completely dissolved | 0.86 mg per ml ‘as is’ | Solubility [μmol per ml] [6]: 0.433 μmol per ml; Solubility after 24 Hours [6]: Completely dissolved; Comments (solubility on preparation) [13]: Completely dissolved in; Solubility [mg per ml 'as is'] [13]: 0.35 mg per ml ‘as is’; Solubility [μmol per ml] [13]: 0.174 μmol per ml; Solubility after 24 Hours [13]: Precipitated out,; solubility [7]: ≥ 365 µg/mL; solubility [8]: ≥ 5890 µg/mL; solubility [9]: ≥ 1150 µg/mL; solubility [10]: ≥ 330 µg/mL; solubility [11]: ≥ 760 µg/mL; solubility [14]: ≥ 306 µg/mL; solubility [12]: ≥ 10100 µg/mL
AKYMVIQGEPGRVIRGK [Bir12B] | Completely dissolved | 10.22 mg per ml ‘as is’ | 4.490 μmol per ml | Completely dissolved | Completely dissolved | 23.84 mg per ml ‘as is’ | 10.474 μmol per ml | Completely dissolved | Completely dissolved | 20.62 mg per ml ‘as is’ | 9.060 μmol per ml | Completely dissolved | Completely dissolved | 5.47 mg per ml ‘as is’ | 2.403 μmol per ml | Completely dissolved | 10.32 mg per ml ‘as is’ | 4.534 μmol per ml | Completely dissolved | 5.84 mg per ml ‘as is’ | Comments (solubility on preparation) [5]: Completely dissolved; Solubility after 24 Hours [5]: Completely dissolved; Solubility [μmol per ml] [6]: 2.564 μmol per ml; Solubility after 24 Hours [6]: Completely dissolved; Comments (solubility on preparation) [13]: Completely dissolved.; Solubility [mg per ml 'as is'] [13]: 2.28 mg per ml ‘as is’; Solubility [μmol per ml] [13]: 1.002 μmol per ml; Solubility after 24 Hours [13]: Completely dissolved.; solubility [7]: ≥ 19900 µg/mL; solubility [8]: ≥ 17200 µg/mL; solubility [9]: ≥ 4570 µg/mL; solubility [10]: ≥ 8630 µg/mL; solubility [11]: ≥ 4880 µg/mL; solubility [14]: ≥ 1910 µg/mL; solubility [12]: ≥ 8540 µg/mL
KEMGETLLRAVESYLLAHS [BIR09R] |  |  |  |  |  |  |  |  |  |  |  |  |  |  |  |  |  |  |  |  | Comments (solubility on preparation) [13]: Completely dissolved; Solubility [mg per ml 'as is'] [13]: 4.92 mg per ml ‘as is’; Solubility [μmol per ml] [13]: 1.993 μmol per ml; Solubility after 24 Hours [13]: Completely dissolved; solubility [14]: ≥ 4280 µg/mL
AERERIFKRFDANGEGK [Bir16A] | Completely dissolved | 24.86 mg per ml ‘as is’ | 10.652 μmol per ml | Completely dissolved | Completely dissolved | 21.54 mg per ml ‘as is’ | 9.229 μmol per ml | Completely dissolved | Completely dissolved | 21.98 mg per ml ‘as is’ | 9.418 μmol per ml | Completely dissolved | Completely dissolved | 7.17 mg per ml ‘as is’ | 3.074 μmol per ml | Completely dissolved | 7.49 mg per ml ‘as is’ | 3.208 μmol per ml | Completely dissolved | 23.16 mg per ml ‘as is’ | Comments (solubility on preparation) [5]: Completely dissolved; Solubility after 24 Hours [5]: Completely dissolved; Solubility [μmol per ml] [6]: 9.923 μmol per ml; Solubility after 24 Hours [6]: Completely dissolved; Comments (solubility on preparation) [13]: Completely dissolved; Solubility [mg per ml 'as is'] [13]: 25.86 mg per ml ‘as is’; Solubility [μmol per ml] [13]: 11.080 μmol per ml; Solubility after 24 Hours [13]: Completely dissolved; solubility [7]: ≥ 18700 µg/mL; solubility [8]: ≥ 19100 µg/mL; solubility [9]: ≥ 6220 µg/mL; solubility [10]: ≥ 6490 µg/mL; solubility [11]: ≥ 20100 µg/mL; solubility [14]: ≥ 22400 µg/mL; solubility [12]: ≥ 21600 µg/mL
